Assay results as given in patent US6492329B1, “Cytokine and hemopoietic factor endogenous production enhancer and methods of use thereof” (Novelos Therapeutics, Inc., priority 1995, dated 2002).

Tests used:
[1] = test system: e-ras cells after UV-irradiation; assay: Number of clones of e-ras cells after UV-irradiation; format: cell-based, rat
Procedure: (§1) To this end, these substances had been incubated for 72 hours with cells of rat embrional fibroblasts (REF) and the same cells, transformed with adenoviral E1A gene in complementation with ras-oncogene (e-ras cell line). Subsequent evaluation of the cellularity of experimental samples was carried out by counting the quantity of cell per milliliter (for REF cell line) or clones in dish (for e-ras cell line).
(§2) Cells were cultivated on DMEM medium supplemented with 10% fetal calf serum and […] gentamicin. Cultivation was carried out in Petri dishes.
(§3) E-ras cells were seeded at a cell density of 300 cells per 5 cm dish. 7 days after growth of e-ras cells had been started the quantity of clones was evaluated and the test articles were added into the dishes.
(§4) For the test-system for estimation of apoptosis regulation UV-induced cell death was triggered in a dose of 4 Dj. Test articles were added immediately after irradiation. Then, the quantity of cell per milliliter (for REF cell line) or clones in dish (for e-ras cell line) were monitored every 24 hours. For determination of DNA-fragmentation the electrophoresis in agarose gel was used at standard settings.

leukemia L1210 cells [2] = assay: Leukemia L1210 in mice: ascitic fluid and survival (Example 14); settings: for Accumulation of ascitic (weight gain, %): leukemia L1210
[3] = test system: rat embrional fibroblasts (REF) after UV-irradiation; assay: Number of REF cells after UV-irradiation; format: cell-based
Procedure: as §1, §2
(§5) REF cells was cultivated with initial density of 800 000 cell per mL, evaluation of the cellularity was performed at 0, 24, 48 and 72 hours of incubation with the test articles.
as §4

leukemia P388 cells [4] = assay: Leukemia P388 in mice: ascitic fluid and survival (Example 14); settings: for Accumulation of ascitic (weight gain, %): leukemia P388
Procedure: An influence of 7 day course of test article daily administration was studied in respect of tumor progression, which was estimated using the two integral indices: pace of mouse weight gain due to accumulation of ascitic fluid, and by animal mean survival time after inoculation.
The study was carried out on DBA/2 mice weighing 18-21 g. First, tumor cell passage was performed using 6 animals for each cell line. For this, cells kept at the temperature of the liquid nitrogen were de-frozen and adjusted to the concentration of 5×10^6 cells/mL by sterile Hanks' solution. Then, 6 mice were intra peritoneally inoculated with 0.2 mL of each line cellular suspension.
Ascitic fluid was collected 6 days after the inoculation with L1210 cells, 8 days after the inoculation with P388 ones and 18 days after inoculation with Erlich adenocarcinoma cells. Thus obtained, the samples of passaged tumor cells were used for the main experiments. The fluid liquid was dissolved by sterile Hanks' solution so that cell concentration be 5×10^6 cells/mL for P388 cells and Erlich adenocarcinoma cells, 5×10^5 cells/mL for L1210 cells.
Eleven groups of animals with no less than 15 mice each were formed for experiments with either tumor cell line. Mice were inoculated with 0.2 mL of resultant cell suspensions per mouse (10^6 P388 and Erlich adenocarcinoma cells/mouse, and 10^5 L1210 cells/mouse). 24 hours after the tumor cells inoculation, animals were given the first injections of the test articles or vehicles. The test article injections were made daily till the 14th day of the experiment or till the animal death. The volume of solutions injected comprised 0.01 mL/g body weight.
(§6) #1—intact animals receiving imitation of tumor cell inoculation (injection of normal saline) which further were treated with normal saline throughout the entire experiment;
(§7) #2—control animals, inoculated with tumor cells, which further were treated with test article vehicle (normal saline);

[5] = test system: e-ras cell line (REF transformed with E1A and ras-oncogene); assay: Number of clones of e-ras cells throughout 72-hr incubation; format: cell-based, rat
Procedure: as §1, §2, §3, §4

leukemia P388 cells [6] = assay: Leukemia P388 in mice: serum cytokines, ascitic fluid, survival (Example 5); settings: for Accumulation of ascitic fluid (weight gain) / Concentration in serum: IFNα / Concentration in serum: IL-1 / Concentration in serum: IL-2 / Concentration in serum: IL-6 / Concentration in serum: TNFα: P388 mice
Procedure: (§8) An influence of 7 day course of test article daily administration was studied in respect of variations of serum cytokine levels (IL-1, IL-2, IL-6, IFNα, TNF). In parallel, the tumor progression was estimated using the two integral indices: pace of mouse weight gain due to accumulation of ascitic fluid, and by animal mean survival time after inoculation.
(§9) The study was carried out on DBA/2 mice weighing 18-21 g. First, tumor cell passage was performed using 6 animals for each cell line. For this, cells kept at the temperature of the liquid nitrogen were de-frozen and adjusted to the concentration of 5×10^6 cells/mL by sterile Hanks' solution. Then, 6 mice were intraperitoneally inoculated with 0.2 mL of each line cellular suspension.
(§10) Ascitic fluid was collected 6 days after the inoculation with L1210 cells and 8 days after the inoculation with P388 ones. Thus obtained, the samples of passaged tumor cells were used for the main experiments. The fluid liquid was dissolved by sterile Hanks' solution so that cell concentration be 5×10^6 cells/mL for P388 cells and 5×10^5 cells/mL for L1210 cells.
(§11) Nine groups of animals with no less than 15 mice each were formed for experiments with either tumor cell line. Mice were inoculated with 0.2 mL of resultant cell suspensions per mouse (10^6 P388 cells/mouse, and 10^5 L1210 cells/mouse). 24 hours after the tumor cells inoculation. animals were given the first injections of the test articles or vehicles. The test article injections were made daily till the 14th day of the experiment or until the animal's death. The volume of solutions injected comprised 0.01 mL/g body weight.
as §6, §7

HL-60 cells = assay: Proliferation/apoptosis of HL-60 tumor cells (cell number per well, flow cytofluorometry)
Procedure: Subsequent evaluation of the cell cycle parameters was carried out by the flow cytofluorometry technique.
A mononuclear fraction of blood leukocytes were obtained by centrifugation in gradient of fikoll-metrizoat (Histopaque, Sigma). […] Cell viability was estimated by the Trypan blue exclusion method, then the cell suspension was placed into wells of 96-well microtiter plates—200,000 cells per well. […] Cultivation was carried out in closed flasks, the medium volume was 12 mL, it was changed every four days by centrifugation. The nature of the cells growth was suspensive. […] 50 μL of each test solution were added to one or the other cell culture and thereafter cells were cultivated for 24-96 hours. Then, they were tested by the flow cytofluorometry to estimate DNA content in the cell nuclei. In case of apoptosis-like cellular death, the portion of cell nuclei with normal content of DNA became reduced, while the portion of cell nuclei containing abnormally small DNA quantity became larger.
The analysis procedure was the following: after incubation completion, cells were centrifuged and transferred to a standard phosphate isotonic buffer pH 7.4, containing RNA-ase A (20 μg/mL), ethidium bromide (fluorometric indicator for double stranded nucleic acid. 10 μg/mL) and MgCl2 (5 mM). After the cells were disintegrated by nonionic detergent Triton X-100 (final concentration 0.1%). The suspension of cell nuclei thus obtained was analyzed by flow cytofluorometry with an argon laser as a source of light (wave length 488 nm). The red fluorescence due to DNA bound ethidium bromide was taken to be the measure of DNA content in the cell nuclei.

[7] = test system: rat embrional fibroblasts (REF); assay: Number of REF cells throughout 72-hr incubation; format: cell-based
Procedure: as §1, §2, §5, §4

normal human lymphocytes = assay: Proliferation/apoptosis of normal human lymphocytes (cell number per well, flow cytofluorometry); format: cell-based
[8] = test system: Erlich adenocarcinoma cells; assay: Erlich adenocarcinoma in mice: ascitic fluid and survival (Example 14); settings: for Accumulation of ascitic (weight gain, %): Erlich adenocarcinoma
leukemia L1210 cells [9] = assay: Leukemia L1210 in mice: serum cytokines, ascitic fluid, survival (Example 5); settings: for Accumulation of ascitic fluid (weight gain) / Concentration in serum: IFNα / Concentration in serum: IL-1 / Concentration in serum: IL-2 / Concentration in serum: IL-6 / Concentration in serum: TNFα: L1210 mice
Procedure: as §8, §9, §10, §11, §6, §7

## NCCSSCCN [0.1% cystamine, 2,2′-Dithio-bis[ethylamine]]
[1]; 0 hours
  number of clones of e-ras cells after UV-irradiation (M ± m): 276 ± 4
[1]; 24 hours
  number of clones of e-ras cells after UV-irradiation (M ± m): 181 ± 4
[1]; 48 hours
  number of clones of e-ras cells after UV-irradiation (M ± m): 111 ± 6
[1]; 72 hours
  number of clones of e-ras cells after UV-irradiation (M ± m): 108 ± 3
Leukemia L1210 cells [2]; number of injection 0
  Accumulation of ascitic (weight gain, %): 0.42 ± 0.3%
Leukemia L1210 cells [2]; number of injection 3
  Accumulation of ascitic (weight gain, %): 8.2 ± 0.6%
Leukemia L1210 cells [2]; number of injection 7
  Accumulation of ascitic (weight gain, %): 24.8 ± 2.1%
Leukemia L1210 cells [2]; mice inoculated with leukemia L1210 cells
  Mean survival time: 10.2 ± 0.8
[3]; 0 hours
  number of REF cells after UV-irradiation (M ± m): 822 ± 14 × 10^3 cells
[3]; 24 hours
  number of REF cells after UV-irradiation (M ± m): 523 ± 11 × 10^3 cells
[3]; 48 hours
  number of REF cells after UV-irradiation (M ± m): 246 ± 34 × 10^3 cells
[3]; 72 hours
  number of REF cells after UV-irradiation (M ± m): 208 ± 26 × 10^3 cells
Leukemia P388 cells [4]; number of injection 0
  Accumulation of ascitic (weight gain, %): 0.4 ± 0.3%
Leukemia P388 cells [4]; number of injection 3
  Accumulation of ascitic (weight gain, %): 5.2 ± 0.6%
Leukemia P388 cells [4]; number of injection 7
  Accumulation of ascitic (weight gain, %): 18.8 ± 1.1%
Leukemia P388 cells [4]; mice inoculated with leukemia P388 cells
  Mean survival time: 20.2 ± 0.3
[5]; 0 hours of incubation
  number of clones of e-ras cells (M ± m): 276 ± 4
[5]; 24 hours of incubation
  number of clones of e-ras cells (M ± m): 281 ± 4
[5]; 48 hours of incubation
  number of clones of e-ras cells (M ± m): 271 ± 6
[5]; 72 hours of incubation
  number of clones of e-ras cells (M ± m): 258 ± 3
Leukemia P388 cells [6]; 0 injections
  Accumulation of ascitic fluid (weight gain): 0.67 ± 0.22%
  Concentration in serum: IFNα: 107 ± 8.06 pg/mL
  Concentration in serum: IL-1: 30.0 ± 4.02 pg/mL
  Concentration in serum: IL-2: 14.9 ± 2.05 pg/mL
  Concentration in serum: IL-6: 72.7 ± 9.10 pg/mL
  Concentration in serum: TNFα: 80.5 ± 7.14 pg/mL
Leukemia P388 cells [6]; 3 daily injections
  Accumulation of ascitic fluid (weight gain): 6.0 ± 0.49%
  Concentration in serum: IFNα: 216. ± 19.08 pg/mL
  Concentration in serum: IL-1: 41.5 ± 5.81 pg/mL
  Concentration in serum: IL-2: 15.25 ± 1.80 pg/mL
  Concentration in serum: IL-6: 184.0 ± 15.6 pg/mL
  Concentration in serum: TNFα: 204. ± 16.1 pg/mL
Leukemia P388 cells [6]; 7 daily injections
  Accumulation of ascitic fluid (weight gain): 19.9 ± 1.67%
  Concentration in serum: IFNα: 315. ± 9.80 pg/mL
  Concentration in serum: IL-1: 22.3 ± 3.0 pg/mL
  Concentration in serum: IL-2: 20.18 ± 2.50 pg/mL
  Concentration in serum: IL-6: 170.6 ± 14.3 pg/mL
  Concentration in serum: TNFα: 220. ± 19.1 pg/mL
Leukemia P388 cells [6]; mice inoculated with leukemia P388 cells, daily injections till day 14 or death
  Mean survival time: 9.93 ± 0.27
HL-60 cells; 24 hours incubation
  number of HL-60 cells per well: 112 ± 10 × 10^4 cells
HL-60 cells; 48 hours incubation
  number of HL-60 cells per well: 182 ± 9 × 10^4 cells
HL-60 cells; 72 hours incubation
  number of HL-60 cells per well: 465 ± 11 × 10^4 cells
HL-60 cells; 96 hours incubation
  number of HL-60 cells per well: 618 ± 19 × 10^4 cells
[7]; 0 hours of incubation
  number of REF cells (M ± m): 822 ± 14 × 10^3 cells
[7]; 24 hours of incubation
  number of REF cells (M ± m): 1523 ± 11 × 10^3 cells
[7]; 48 hours of incubation
  number of REF cells (M ± m): 2486 ± 34 × 10^3 cells
[7]; 72 hours of incubation
  number of REF cells (M ± m): 5048 ± 126 × 10^3 cells
Normal human lymphocytes; 24 hours incubation
  number of normal lymphocytes per well: 30 ± 2 × 10^4 cells
Normal human lymphocytes; 48 hours incubation
  number of normal lymphocytes per well: 72 ± 4 × 10^4 cells
Normal human lymphocytes; 72 hours incubation
  number of normal lymphocytes per well: 122 ± 9 × 10^4 cells
Normal human lymphocytes; 96 hours incubation
  number of normal lymphocytes per well: 196 ± 11 × 10^4 cells
[8]; number of injection 0
  Accumulation of ascitic (weight gain, %): 0.6 ± 0.2%
[8]; number of injection 3
  Accumulation of ascitic (weight gain, %): 9.2 ± 0.8%
[8]; number of injection 7
  Accumulation of ascitic (weight gain, %): 25.8 ± 1.7%
[8]; mice inoculated with Erlich adenocarcinoma cells
  Mean survival time: 10.2 ± 0.8
Leukemia L1210 cells [9]; 0 injections
  Accumulation of ascitic fluid (weight gain): 0.47%
  Concentration in serum: IFNα: 115.0 pg/mL
  Concentration in serum: IL-1: 36.0 pg/mL
  Concentration in serum: IL-2: 16.9 pg/mL
  Concentration in serum: IL-6: 63.0 pg/mL
  Concentration in serum: TNFα: 88.6 pg/mL
Leukemia L1210 cells [9]; 3 daily injections
  Accumulation of ascitic fluid (weight gain): 5.93%
  Concentration in serum: IFNα: 200. pg/mL
  Concentration in serum: IL-1: 47.50 pg/mL
  Concentration in serum: IL-2: 17.30 pg/mL
  Concentration in serum: IL-6: 70.0 pg/mL
  Concentration in serum: TNFα: 185.0 pg/mL
Leukemia L1210 cells [9]; 7 daily injections
  Accumulation of ascitic fluid (weight gain): 21.17%
  Concentration in serum: IFNα: 137.0 pg/mL
  Concentration in serum: IL-1: 28.0 pg/mL
  Concentration in serum: IL-2: 22.8 pg/mL
  Concentration in serum: IL-6: 155.0 pg/mL
  Concentration in serum: TNFα: 213.0 pg/mL
Leukemia L1210 cells [9]; mice inoculated with leukemia L1210 cells, daily injections till day 14 or death
  Mean survival time: 9.53 ± 0.18
